Columns and labels:
Format in all cases: in vivo
[1] = Liver lipids in Swiss mice fed with a western diet; conditions: 100 mg/kg/day, western diet 6 weeks, fasted 48 h
Procedure: (§1) Total lipids and triglycerides in the liver of animals were assessed according to a procedure partially reported by (Letteron P., Fromenty B., Terris B., Degott C., Pessayre D., 1996, J. Hepatol. 24 : 200-208). Briefly, after killing of the animals, livers were removed and homogenized in sterile water. Hepatic lipids were thus extracted by a mixture of chloroform and methanol (2/1; v/v). After removal of the aqueous phase, the organic phase (chloroform containing the lipids) was evaporated and the amount of lipids was determined by gravimetry. Lipids were subsequently resuspended in isopropanol (final concentration, ca. 10 mg/mL). After removal of the phopholipids by using aluminum hydroxide hydrate, triglycerides were determined colorimetrically by using periodate and the Nash's reagent (containing acetylacetone, ammonium acetate and isopropanol). The reaction generates diacetyldihydrolutidine which is assayed by spectrophotometry (λ=410 nm).
Liver lipids were assessed in mice fed with the western diet (WD) receiving or not of 100 mg/kg/day of β-aminoisobutyric acid (BAIBA) in the drinking water (8 mice in each group). For comparison, the experiment also included a group of mice (n=8) fed with a standard diet (SD). These animals were those used for the determination of body fat by DEXA (see above, paragraph I-c) but after the last DEXA measurement (i.e. after 6 weeks of treatment), mice were allowed to recover from the anaesthesia for ca. 2 days and were then submitted to a 48-hour period of fast. At the end of this fasting period DEXA was again performed (see above) and then mice were killed for liver lipids determination. The western diet was responsible for an increase in liver lipids as compared to mice fed with the standard diet.

[2] = Liver triglycerides in ob/ob mice, 6 weeks; conditions: 100 mg/kg/day 6 weeks, fasted 48 h
Procedure: as §1
Liver triglycerides were assessed in ob/ob mice fed with a standard diet and receiving or not of 100 mg/kg/day of β-aminoisobutyric acid (BAIBA) in the drinking water during 6 weeks. Mice were 10 weeks old at the beginning of the experiment. These animals (7 controls and 10 treated with BAIBA) were different from those used for the determination of body fat by DEXA in the fed state (see above, paragraph I-d). At the end of the 6 weeks of treatment mice were submitted to a 48-hour period of fast At the end of this fasting period mice were killed for assessment of liver triglycerides. […] Indeed, liver triglycerides were reduced by 16 and 12%, respectively when the values were expressed as mg/whole liver or as mg/gram of lipids.

[3] = Plasma glucose, insulin, adiponectin and leptin in lean mice, standard diet, 6 weeks, 48 hours fast; conditions: 100 mg/kg/day 6 weeks, fasted 48 hours
Procedure: Plasma glucose was measured on an automatic analyser (Synchron LX20 from Beckman Coulter) with a commercial kit (kit n°472500 from Beckman).
Plasma insulin, adiponectin and leptin were measured by radioimmunoassay (RIA). Insulin was measured with the Insulin-CT kit from Cis Bio International (Gif-sur-Yvette, France), whereas plasma leptin and adiponectin were assessed with kits from Linco Research Inc. (St Charles, Mo.). Leptin was not measured in ob/ob mice since these animals are genetically leptin-deficient (Friedman J. M., Halaas J. L., 1998, Nature 395: 763-770). Results regarding insulin were expressed as recommended by kit manufacturer.
Glucose, insulin, adiponectine and leptin were assessed in lean mice fed with the standard diet and receiving (13 mice) or not (12 mice) 100 mg/kg/day of β-aminoisobutyric acid in the drinking water for 6 weeks.
At the end of the 6-weeks period of treatment, mice were submitted to a fasting period for 48 hours. Plasma glucose, insulin and adiponectin were not changed in treated mice, but a trend toward lower leptin levels was observed. Indeed, plasma leptin was 3.72±0.59 and 3.14±0.34 ng/ml, respectively in control mice (n=12) and mice treated with β-aminoisobutyric acid (n=13). Leptin is an adipokine mainly secreted by adipose tissue and its plasma levels in human and mice are highly correlated with the whole adipose tissue mass (Friedman J. M. and Hallas J. L., 1998, Nature 395: 763-770). Thus, data regarding plasma leptin are in keeping with the observation that β-aminoisobutyric acid limits body fat accumulation in lean mice.

[4] = Plasma HDL-cholesterol and triglycerides in ob/ob mice during a 4-month treatment
Procedure: Plasma lipids (triglycerides, total cholesterol, phospholipids) were measured on an automatic analyser (Hitachi 717®). The commercial kits used to assess triglycerides, total cholesterol and phospholipids on this analyser were all from bioMérieux (references 61238, 61219 and 61491, respectively). Plasma non esterified fatty acids (NEFA) were assessed by using a commercial kit (Wako, reference 994-75409). Hepatic and plasma lipids were performed at the end of six weeks of treatment in animals that have been fasted for 48 hours. Triglycerides and HDL-cholesterol were also assessed after 2 months (in the fed state) or after 4 months of treatment (after an overnight fast).
Plasma HDL-cholesterol and alanine aminotransferase (ALT) were measured on an automatic analyser (Olympus AU400®) with commercial kits (Olympus Diagnostica GmbH, references OSR6187 and OSR6107, respectively).
In this series of experiments, plasma lipids, and especially HDL-cholesterol were assessed in ob/ob mice during a 4-month period of treatment. Mice were fed with standard diet. Ob/ob mice were treated for 4 months with β-aminoisobutyric acid, administered either at the usual dose (100 mg/kg/day) or at a higher dose (500 mg/kg/day). After two months, measurements were done in the fed state, while at the end of the treatment (i.e. after 4 months) plasma parameters were assessed after a overnight fasting period (i.e. 15 hours). One mice in the control group died between the third and fourth month of treatment.
The number of mice at the end of the experiment was 6,7 and 8, respectively in the control group and the groups treated with 100 and 500 mg/kg/day of β-aminoisobutyric acid. It is noteworthy that the animals studied in this experiment are the same than those cholesterol. Indeed, HDL-cholesterol was 3.26±0.33, 3.45±0.31 and 3.64±0.31 mmol/L, respectively in control mice and mice treated with 100 and 500 mg/kg/day of β-aminoisobutyric acid. Plasma triglycerides tended to be decreased in treated mice. Triglycerides were indeed 1.37±0.13, 1.09±0.06 and 1.25±0.17 mmol/L, respectively in control mice and mice treated with 100 and 500 mg/kg/day of β-aminoisobutyric acid.

[5] = 100 mg/kg/day, after 4 months, fasted state
[6] = 100 mg/kg/day, first time point (two months, fed state)
[7] = 500 mg/kg/day, after 4 months, fasted state
[8] = 500 mg/kg/day, first time point (two months, fed state)

CC(CN)C(=O)O (racemic) [BAIBA, D,L-β-Aminoisobutyric acid]
hepatic triglycerides [1]: 33±6 mg/whole liver
liver lipids [1]: 108±7 mg/whole liver
decrease of liver total lipids ([1]; vs Controls-WD): 24%
decrease of liver triglycerides ([1]; vs Controls-WD): 17%
reduction of liver triglycerides (values as mg/gram of lipids) [2]: 12%
reduction of liver triglycerides (values as mg/whole liver) [2]: 16%
liver triglycerides ([2]; p<0.01): 625±14 mg/g of lipids
plasma adiponectin vs control [3]: not changed
plasma glucose vs control [3]: not changed
plasma insulin vs control [3]: not changed
plasma leptin [3]: 3.14 ± 0.34 ng/mL
HDL-cholesterol [4, 5]: 4.01 ± 0.30 mmol/L
plasma triglycerides [4, 5]: 1.34 ± 0.08 mmol/L
HDL-cholesterol [4, 6]: 3.45 ± 0.31 mmol/L
plasma triglycerides [4, 6]: 1.09 ± 0.06 mmol/L
HDL-cholesterol [4, 7]: 3.98 ± 0.31 mmol/L
plasma triglycerides [4, 7]: 1.26 ± 0.07 mmol/L
HDL-cholesterol [4, 8]: 3.64 ± 0.31 mmol/L
plasma triglycerides [4, 8]: 1.25 ± 0.17 mmol/L
